Measurements: a melting point compilation (Tetko et al.; mined from patent text by program, amines drawn as free bases though some values may be those of a salt)

| melting point [°C] | SMILES |
| --- | --- |
| 111 to 112 | CCC(=NO)C1=CCCN(Cc2ccccc2)C1 |
| 113 to 115 | O=C(c1ccc(F)cc1)N1CCC[C@H](c2nc(-c3ccncc3)no2)C1 |
| 254 to 255 | Cc1ccnc(Nc2nc(-c3c[nH]nc3C(=O)c3ccccc3)cs2)n1 |
| 142 to 144 | CC(=O)N1CCN(c2ccc(N)cc2)CC1 |
| 158 to 159 | NC(=S)NN=C(CCCNC(=O)C1CCCCC1)c1ccccc1 |
| 159 to 160 | CN1CCCc2ccc(NC(=O)c3cc4cc(F)ccc4n3Cc3cccc(F)c3)cc21 |
| 186 to 188 | CC1COCc2nc3c(N)nc4ccc(OCCN5CCOCC5)cc4c3n21 (stereo not drawn) |
| 135 to 137 | CC(=O)NC(=O)OCc1nc(C(C)C)c(Sc2cc(Cl)cc(Cl)c2)n1Cc1ccncc1 |
| 170 to 173 | COc1cc(Nc2c(C#N)cnc3cc4cc(OC)c(OCCN5CCN(C)CC5)cc4cc23)c(Cl)cc1F |
| 220 to 226 | COc1cc2c(Nc3ccc(Sc4nccn4C)c(Cl)c3)c(C#N)cnc2cc1N1CCN(C2CCN(C)CC2)CC1 |
| 110 to 114 | Cc1ncsc1C(=O)Nc1ccc(-n2nc(C3CC3)cc2C2CC2)cc1 |
| 106 to 109 | O=S(=O)(c1ccccc1)N1CCC(C(O)(c2ccc(F)cc2)C2CCCCC2)CC1 (stereo not drawn) |
| 157 to 159 | CCOC(=O)c1ccc(-c2nc3ccc(C)cn3c2CO)cc1 |
| 117 | CC(C)(C)OC(=O)n1cnc2c(N)cccc21 |
| 168 to 172 | CC(C)(C)c1cc(SCCC(=O)N(C2CCCCC2)C2CCCCC2)cc(C(C)(C)C)c1O |
| 132 to 133 | Cc1nc(-c2ccc3c(c2)CCCC3)c(CO)o1 |
| 159 to 162 | CC(=O)N1C(C(=O)O)CSC1c1ccccc1OCCO[N+](=O)[O-] (stereo not drawn) |
| 47 to 48 | COC(=O)c1cccc(OCc2ccc3ccccc3c2)c1C |
| 78 to 80 | COCCSc1cc(N)ncn1 |
| 142 to 145 | CCOc1ccc(C2=NN(CC3CC3)C(=O)[C@H]3CC=CC[C@@H]23)cc1OCC (relative stereo) |
| 191 to 192 | CCOC(=O)c1sc(C2=C(C)NC(C)=C(C(=O)OC)C2c2ccccc2[N+](=O)[O-])nc1C (stereo not drawn) |
| 165 to 167 | CC(=O)N1CCN(c2ccc(NS(C)(=O)=O)cc2)CC1 |
| 112 to 113 | COC(=O)c1ccc(N)c(C=C(Br)Br)c1 |
| 146 | COCCC(=O)N[C@H]1CC[C@H](CCN2CCN(c3nccc4ccoc34)CC2)CC1 |
| 184 | O=C(/C=C/c1cccc(S(=O)(=O)N2CCN(CCc3ccc4ccccc4c3)CC2)c1)NO |
| 127 | CCNC(=O)N1CCc2cc(S(=O)(=O)N3CC(c4ccccc4)NC3=O)ccc21 (stereo not drawn) |

| melting point [°C] | SMILES |
| --- | --- |
| 241 | Cc1ccc2c(c1)C(c1ccccc1)CC(N1CCN(C3CC(c4ccccc4)c4cc(C)ccc4O3)CC1)O2 (stereo not drawn) |
| 103 to 106 | CCNC(=O)c1cnn(C)c1 |
| 246 to 247 | CNC(=O)c1cc(-c2ccc(OC)cc2)n[nH]c1=O |
| 138 to 140 | O=C(OCc1ccccc1)N1CCN2c3ccc([N+](=O)[O-])cc3OCC2C1 (stereo not drawn) |
| 231 to 232 | O=c1nc(-c2ccccn2)sc2cc(Br)ccc12 |
| 135 to 137 | CCOC(=O)c1cnc2c(OC)csc2c1Cl |
| 171 to 173 | O=C(c1ccc(OCc2ccnc3ccccc23)cc1)[NH+]([O-])C1CCN(Cc2ccccc2)CC1 (stereo not drawn) |
| 182 to 184 | CN(C)C1CCN(c2ccc(NC(=O)n3ccc4cc(Oc5cc(CC(N)=O)ncn5)ccc43)cc2C(F)(F)F)C1 (stereo not drawn) |
| 102 to 103 | CC(=O)c1cc(Br)c(OCCCN2CCC(c3noc4cc(F)ccc34)CC2)c(Br)c1 |
| 55 to 56 | COc1cc(C=O)ccc1OCCCCCCO |
| 104 to 107 | CC(C)(C)OC(=O)Cc1nc(Sc2ccccc2)ccc1[N+](=O)[O-] |
| 327 to 328 | CC(=O)C1=CCC2C3CCC4=CC(=O)C=CC4(C)C3(F)C(O)CC12C (stereo not drawn) |
| 220 to 222 | Fc1ccc(Nc2ncnc3cnc(OC4CCOCC4)nc23)cc1Cl |
| 186 to 190 | CCC(Oc1ccc(C(C)(C)CC)cc1C(C)(C)CC)C(=O)Nc1cccc(C(=O)NC2=NN(c3c(Cl)cc(Cl)cc3Cl)C(=O)C2N2CCCCC2)c1 (stereo not drawn) |
| 59 to 61 | Cc1ccc(S(=O)(=O)OCC(C)(C)CS(N)(=O)=O)cc1 |
| 90 to 92 | CC(C)NC(=O)NC/C=C\COc1cc(CN2CCCCC2)ccn1 |
| 195 to 196 | CCc1c(C)c(NC(=O)CC(C)(C)C)c(C)c2c1S(=O)CC2c1ccc(C(C)C)cc1 (stereo not drawn) |
| 117 to 118 | CCOC(=O)NC1=NCC(c2ccc(F)cc2)N1C (stereo not drawn) |
| 93 to 96 | COc1ccc(S(=O)(=O)C(C=CC(C)C)(CC=C(C)C)C(=O)NO)cc1 (stereo not drawn) |
| 122 to 123 | COC(=O)NC=Cc1ccc(OCC2CO2)c(OC)c1 (stereo not drawn) |
| 185 to 190 | NCCNCCNc1ccc2c3c(nn2CCO)-c2c(O)ccc(O)c2C(=O)c13 |
| 117 to 120 | CN1CCC[C@@H]1Cc1cn(Cc2ccccc2)c2ccc(CS(=O)(=O)N(C)C(c3ccccc3)c3ccccc3)cc12 |
| 181 to 183 | CN(C(=O)OC(C)(C)C)[C@@H]1CCc2c(c3cc(S(=O)(=O)c4ccccc4)ccc3n2C)C1 |
| 170 to 172 | COC(=O)C1=C(C)NC(C)=C(C(=O)OCC2CCCO2)C1c1cccc(O)c1 (stereo not drawn) |
| 248 to 252 | O=C(Nc1ccc(C(F)(F)F)cc1)NC1CCN(S(=O)(=O)c2ccccc2)CC1 |
| 108 to 109 | CCOc1ccc(O)cc1C=O |

More lines, now with the values behind:

| SMILES | melting point [°C] |
| --- | --- |
| CC(C)(C)NS(=O)(=O)Cc1ccccc1N | 115 to 117 |
| N#CCCN(CC1CC1)C(N)=O | 84 to 87 |
| CC1(C)OC(=O)Nc2ccc(-c3ccc(F)c(Cl)c3)cc21 | 211 to 212 |
| BrCc1ccccc1Oc1ccc(Br)cc1 | 56 to 58 |
| C[C@H]1Oc2ccc(F)cc2NC(=O)[C@H]1N | 173 to 177 |
| O=C1C(Cc2ccccc2)C(c2ccccc2)Nc2ccccc2N1Cc1ccccc1 (stereo not drawn) | 149 to 150 |
| COc1cc(C)c(C(O)c2c(C(F)(F)F)cnc(Cl)c2Cl)c(OC)c1OC (stereo not drawn) | 95 to 98 |
| FC(F)(F)c1cc(I)cc(OCc2ccc3ccccc3c2)c1 | 65 to 66 |
| O=C(O)CC(CC(=O)O)c1cc(C(=O)O)n(CC(=O)O)c1 | 130 |
| C(#Cc1ccc(C2=CC(c3ccc(C#Cc4ccccc4)cc3)N(c3ccccc3)N2)cc1)c1ccccc1 (stereo not drawn) | 200 to 204 |
| CCOC(=O)C(CC(=O)c1ccc(Oc2ccc(C)cc2)cc1)SC(C)=O (stereo not drawn) | 85 to 86.5 |
| CC(OS(C)(=O)=O)C(C)N1C(=O)c2ccccc2C1=O (stereo not drawn) | 67 to 73 |
| O=c1cc(-c2ccoc2)c2ccc(S)cc2o1 | 167 to 170 |
| CC(=O)OC1CSC(Oc2cncc(I)c2)C(OC(C)=O)C1OC(C)=O (stereo not drawn) | 148 to 150 |
| Cc1cccc(C(N)=O)c1SSc1c(C)cccc1C(N)=O | 189 to 190 |
| COc1ccc(Cl)cc1-c1c(N)c(=O)[nH]c2c(C(F)(F)F)cccc12 | 265 to 266 |
| COc1ccc2oc(Cc3cccc(C(F)(F)F)c3)c(CC#N)c2c1 | 116 |
| O=S(=O)(c1ccc(-n2ncnc2-c2cnccn2)cc1)C(F)F | 152 to 154 |
| COc1nc(C(F)(F)C(F)(F)F)cc(=O)n1-c1cc(C(=O)O)c(Cl)cc1F | 197 to 199 |
| Cc1ccc(C(=O)C=Cc2ccccc2)c(C)c1 | 68 |
| CCOC(=O)C=C(C)NC(=O)C(C)(C)CCl | 76 to 77.5 |
| CC1(C)OC(c2ccc(S(N)(=O)=O)cc2)=C(c2cccc(C(F)(F)F)c2)C1=O | 129 to 130 |
| CCCCOc1c(C=O)n(C)c(=O)c2cc(Cl)c(Cl)cc12 | 114 to 115 |
| O=Cc1ccccc1C(=O)c1ccccc1 | 64 to 67 |
| Cc1cc(Br)cnc1NCCCNC1=NS(=O)N=C1N (stereo not drawn) | 204 to 205 |
| CC(C)C(O)CCC(C)C1CCC2C3CC(O)C4CC(O)CCC4(C)C3CCC12C (stereo not drawn) | 169 to 173 |

| SMILES | melting point [°C] |
| --- | --- |
| CN(C[C@@H](CCO)c1ccc(Cl)c(Cl)c1)C(=O)c1ccccc1 | 123 to 125 |
| Cc1[nH]cnc1Cc1cn(C)c2ccccc2c1=O | 110 to 113 |
| CC(=O)SCCC(=O)N(C)C | 118 to 121 |
| COC(=O)c1c(Cn2cncn2)nc2cc(OC)c(OC)cc2c1-c1ccc(OC)c(OC)c1 | 218 to 220 |
| CN(C)C(=O)COc1ccc(-c2ccc(C3COC(c4c(F)cccc4F)=N3)cc2)cc1 (stereo not drawn) | 78 to 80 |
| CC(=O)c1ccc(N)c2c1OCCO2 | 135 to 136 |
| CCCCCCc1nnc2n1-c1ccc(Cl)cc1C(c1ccccc1)=NC2 | 75 to 78 |
| Cc1cc(C)c2c(c1C)OCC2c1ccc(Br)cc1 (stereo not drawn) | 72 to 73 |
| Cc1cc(NNC(=O)OC(C)(C)C)nnc1-c1ccc(C#N)cc1 | 169 to 171 |
| CC(C)(C)c1cc(CC2CCCCC2=O)cc(C(C)(C)C)c1O (stereo not drawn) | 79 |
| FC(F)(F)C(Cc1ccccc1)(C(F)(F)F)C(F)(F)F | 32 to 33 |
| CC(C)N1CCC(C(C(N)=O)(c2ccccc2)c2ccccc2)C1 (stereo not drawn) | 110 to 112 |
| FC(F)(F)c1ccc(-c2cc(Oc3ccc4cccnc4c3)ncn2)cc1 | 178 to 180 |
| Cn1nc(-c2ncc(Cl)cc2F)c(C(F)F)c1OC(F)F | 79 to 81 |
| S=Cc1cccc(Cl)c1Cc1ccccc1 | 68 to 70 |
| CCc1cc2c(s1)SCCc1cc(=O)n(C)nc1-2 | 168 to 170 |
| CCc1nc(=O)[nH]c2cc(OC)c(OC)cc12 | 263 to 265 |
| CCOC(=O)C=Cc1c(C)cc(OC)c(C)c1C | 42 to 44 |
| CCOC(=O)C=Cc1ccc(O)c(C(F)(F)F)c1C(F)(F)F | 138 to 140 |
| Cc1nn(C)c(SCc2ccccc2)c1[N+](=O)[O-] | 82 to 83 |
| COc1ccc(C(O)C(=O)c2ccccc2)cc1F (stereo not drawn) | 127 to 130 |
| CCC1C(C)=NN=C(c2ccccc2)c2ccc(OC)cc21 (stereo not drawn) | 162 to 163 |
| CCOC(=O)c1c(N=[N+]=[N-])[nH]c(=O)c(I)c1Oc1cc(C)cc(C)c1 | 216 to 218 |
| Cc1cc(NCc2ccc3c(c2)OCO3)nc(SCC#N)n1 | 115 to 118 |
| CC(=O)c1ccc(C2CC(C)(C)CC(C)(C)C2)cc1 | 54 |
